biological target: T1, recombinant full-length human prolyl endopeptidase (PREP) (Homo sapiens, UniProt P48147); experiment: Biochemical human prolyl endopeptidase (PREP) assay with fluorescently labelled substrate; settings: substrate Z-Gly-Pro-AMC 50 μM, 32° C., 60 min; some as mean values from multiple independent determinations
T1 construct: To recombinant full-length human prolyl endopeptidase (PREP, R&D-Systems, 4308-SE); purchased R&D-Systems 4308-SE
T1 sequence (P48147 1-710): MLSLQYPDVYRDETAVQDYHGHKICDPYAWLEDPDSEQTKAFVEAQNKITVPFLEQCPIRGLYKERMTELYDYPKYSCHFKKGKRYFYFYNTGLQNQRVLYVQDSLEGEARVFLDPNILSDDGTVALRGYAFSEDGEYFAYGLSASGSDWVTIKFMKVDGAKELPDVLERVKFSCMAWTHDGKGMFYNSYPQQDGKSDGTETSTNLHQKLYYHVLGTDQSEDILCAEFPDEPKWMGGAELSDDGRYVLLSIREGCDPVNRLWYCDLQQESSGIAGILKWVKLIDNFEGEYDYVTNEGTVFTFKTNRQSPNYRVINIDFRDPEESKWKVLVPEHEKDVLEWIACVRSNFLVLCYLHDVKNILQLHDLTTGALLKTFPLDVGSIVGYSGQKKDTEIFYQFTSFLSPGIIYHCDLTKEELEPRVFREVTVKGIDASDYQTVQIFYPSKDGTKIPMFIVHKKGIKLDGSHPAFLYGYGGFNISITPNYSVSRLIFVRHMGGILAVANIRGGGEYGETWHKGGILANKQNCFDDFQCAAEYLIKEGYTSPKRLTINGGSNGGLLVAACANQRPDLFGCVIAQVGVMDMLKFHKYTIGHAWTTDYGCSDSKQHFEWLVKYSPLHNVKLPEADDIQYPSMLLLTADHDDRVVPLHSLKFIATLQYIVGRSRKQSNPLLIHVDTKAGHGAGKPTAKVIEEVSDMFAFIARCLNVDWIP
Method in brief: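 0.4 nM (final, example) recombinant PREP in pH 7.5 Tris buffer with EDTA, GSH, BSA and Brij-35; compounds at 1 nM to 30 μM. Reaction started with 50 μM Z-Gly-Pro-AMC and followed by fluorescence (ex 360/em 465 nm) at 32° C for 60 min. IC50 interpolated from percent activity based on initial slopes.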

Row | SMILES | IC50 [nM]
1 | O=C([C@@H]1CCCc2nn(Cc3ncc(Cl)cc3F)c(=O)n21)N1CC(F)C1 [Example 407, (5S)-2-[(5-Chloro-3-fluoropyridin-2-yl)methyl]-5-[(3-fluoroazetidin-1-yl)carbonyl]-5,6,7,8-tetrahydro[1,2,4]triazolo[4,3-a]pyridin-3(2H)-one] | 1.35
2 | O=C([C@@H]1CCCc2nn(Cc3ncc(Cl)cc3F)c(=O)n21)N1C[C@@H](F)[C@@H](F)C1 [Example 408, (5S)-2-[(5-Chloro-3-fluoropyridin-2-yl)methyl]-5-{[(3R,4S)-3,4-difluoropyrrolidin-1-yl]carbonyl}-5,6,7,8-tetrahydro[1,2,4]triazolo[4,3-a]pyridin-3(2H)-one] | 0.46
3 | O=C([C@@H]1CCCc2nn(Cc3ncc(Cl)cc3F)c(=O)n21)N1CC(F)(F)C1 [Example 409, (5S)-2-[(5-Chloro-3-fluoropyridin-2-yl)methyl]-5-[(3,3-difluoroazetidin-1-yl)carbonyl]-5,6,7,8-tetrahydro[1,2,4]triazolo[4,3-a]pyridin-3(2H)-one] | 14
4 | O=C([C@@H]1CCCc2nn(Cc3ncc(F)cc3F)c(=O)n21)N1CC(F)C1 [Example 410, (5S)-2-[(3,5-Difluoropyridin-2-yl)methyl]-5-[(3-fluoroazetidin-1-yl)carbonyl]-5,6,7,8-tetrahydro[1,2,4]triazolo[4,3-a]pyridin-3(2H)-one] | 7.7
5 | O=C([C@@H]1CCCc2nn(Cc3ncc(F)cc3F)c(=O)n21)N1C[C@@H](F)[C@@H](F)C1 [Example 411, (5S)-2-[(3,5-Difluoropyridin-2-yl)methyl]-5-{[(3R,4S)-3,4-difluoropyrrolidin-1-yl]carbonyl}-5,6,7,8-tetrahydro[1,2,4]triazolo[4,3-a]pyridin-3(2H)-one] | 2.5
6 | O=C([C@@H]1CCCc2nn(Cc3ncc(F)cc3F)c(=O)n21)N1CCC(F)(F)C1 [Example 412, (5S)-2-[(3,5-Difluoropyridin-2-yl)methyl]-5-[(3,3-difluoropyrrolidin-1-yl)carbonyl]-5,6,7,8-tetrahydro[1,2,4]triazolo[4,3-a]pyridin-3(2H)-one] | 3
7 | Cn1nc(Cn2nc3n(c2=O)[C@H](C(=O)N2CCC(F)(F)C2)CCC3)c2cccnc21 [Example 413, (5S)-5-[(3,3-Difluoropyrrolidin-1-yl)carbonyl]-2-[(1-methyl-1H-pyrazolo[3,4-b]pyridin-3-yl)methyl]-5,6,7,8-tetrahydro[1,2,4]triazolo[4,3-a]pyridin-3(2H)-one] | 1.9
8 | Cn1nc(Cn2nc3n(c2=O)[C@H](C(=O)N2C[C@@H](F)[C@@H](F)C2)CCC3)c2cccnc21 [Example 414, (5S)-5-{[(3R,4S)-3,4-Difluoropyrrolidin-1-yl]carbonyl}-2-[(1-methyl-1H-pyrazolo[3,4-b]pyridin-3-yl)methyl]-5,6,7,8-tetrahydro[1,2,4]triazolo[4,3-a]pyridin-3(2H)-one] | 0.79
9 | Cn1nc(Cn2nc3n(c2=O)[C@H](C(=O)N2CC(F)(F)C2)CCC3)c2cccnc21 [Example 415, (5S)-5-[(3,3-Difluoroazetidin-1-yl)carbonyl]-2-[(1-methyl-1H-pyrazolo[3,4-b]pyridin-3-yl)methyl]-5,6,7,8-tetrahydro[1,2,4]triazolo[4,3-a]pyridin-3(2H)-one] | 5.4
10 | O=C([C@@H]1CCCc2nn(Cc3cc4cccnc4nc3C(F)(F)F)c(=O)n21)N1CCC(F)(F)C1 [Example 418, (5S)-5-[(3,3-Difluoropyrrolidin-1-yl)carbonyl]-2-{[2-(trifluoromethyl)-1,8-naphthyridin-3-yl]methyl}-5,6,7,8-tetrahydro[1,2,4]triazolo[4,3-a]pyridin-3(2H)-one] | 2.24
11 | O=C([C@@H]1CCCc2nn(Cc3cc4cccnc4nc3C(F)(F)F)c(=O)n21)N1CC[C@H](F)C1 [Example 419, (5S)-5-{[(3S)-3-Fluoropyrrolidin-1-yl]carbonyl}-2-{[2-(trifluoromethyl)-1,8-naphthyridin-3-yl]methyl}-5,6,7,8-tetrahydro[1,2,4]triazolo[4,3-a]pyridin-3(2H)-one] | 0.88
12 | O=C([C@@H]1CCCc2nn(Cc3cc4cccnc4nc3C(F)(F)F)c(=O)n21)N1CC(F)C1 [Example 420, (5S)-5-[(3-Fluoroazetidin-1-yl)carbonyl]-2-{[2-(trifluoromethyl)-1,8-naphthyridin-3-yl]methyl}-5,6,7,8-tetrahydro[1,2,4]triazolo[4,3-a]pyridin-3(2H)-one] | 1.7
13 | O=C([C@@H]1CCCc2nn(Cc3ccc(Cl)nc3)c(=O)n21)N1CC(F)C1 [Example 421, (5S)-2-[(6-Chloropyridin-3-yl)methyl]-5-[(3-fluoroazetidin-1-yl)carbonyl]-5,6,7,8-tetrahydro[1,2,4]triazolo[4,3-a]pyridin-3(2H)-one] | 0.91
14 | O=C([C@@H]1CCCc2nn(Cc3ccc(Cl)nc3)c(=O)n21)N1CC[C@H](F)C1 [Example 422, (5S)-2-[(6-Chloropyridin-3-yl)methyl]-5-{[(3S)-3-fluoropyrrolidin-1-yl]carbonyl}-5,6,7,8-tetrahydro[1,2,4]triazolo[4,3-a]pyridin-3(2H)-one] | 0.63
15 | O=C([C@@H]1CCCc2nn(Cc3ccc(Cl)nc3)c(=O)n21)N1CCC(F)(F)C1 [Example 423, (5S)-2-[(6-Chloropyridin-3-yl)methyl]-5-[(3,3-difluoropyrrolidin-1-yl)carbonyl]-5,6,7,8-tetrahydro[1,2,4]triazolo[4,3-a]pyridin-3(2H)-one] | 1.85
16 | O=C([C@@H]1CCCc2nn(Cc3ccc(Cl)nc3)c(=O)n21)N1C[C@@H](F)[C@@H](F)C1 [Example 424, (5S)-2-[(6-Chloropyridin-3-yl)methyl]-5-{[(3R,4S)-3,4-difluoropyrrolidin-1-yl]carbonyl}-5,6,7,8-tetrahydro[1,2,4]triazolo[4,3-a]pyridin-3(2H)-one] | 0.38
17 | O=C([C@@H]1CCCc2nn(Cc3ccc(C(F)(F)F)nc3)c(=O)n21)N1CC[C@H](O)C1 [Example 425, (5S)-5-{[(3S)-3-Hydroxypyrrolidin-1-yl]carbonyl}-2-{[6-(trifluoromethyl)pyridin-3-yl]methyl}-5,6,7,8-tetrahydro[1,2,4]triazolo[4,3-a]pyridin-3(2H)-one] | 35
18 | O=C([C@@H]1CCCc2nn(Cc3ccc(C(F)(F)F)nc3)c(=O)n21)N1CCC(F)(F)C1 [Example 426, (5S)-5-[(3,3-Difluoropyrrolidin-1-yl)carbonyl]-2-{[6-(trifluoromethyl)pyridin-3-yl]methyl}-5,6,7,8-tetrahydro[1,2,4]triazolo[4,3-a]pyridin-3(2H)-one] | 6.93
19 | O=C([C@@H]1CCCc2nn(Cc3ccc(C(F)(F)F)nc3)c(=O)n21)N1CC[C@H](F)C1 [Example 427, (5S)-5-{[(3S)-3-Fluoropyrrolidin-1-yl]carbonyl}-2-{[6-(trifluoromethyl)pyridin-3-yl]methyl}-5,6,7,8-tetrahydro[1,2,4]triazolo[4,3-a]pyridin-3(2H)-one] | 1.1
20 | O=C([C@@H]1CCCc2nn(Cc3ccc(C(F)(F)F)nc3)c(=O)n21)N1CC(O)C1 [Example 428, (5S)-5-[(3-Hydroxyazetidin-1-yl)carbonyl]-2-{[6-(trifluoromethyl)pyridin-3-yl]methyl}-5,6,7,8-tetrahydro[1,2,4]triazolo[4,3-a]pyridin-3(2H)-one] | 53
21 | O=C([C@@H]1CCCc2nn(Cc3ccc(C(F)(F)F)nc3)c(=O)n21)N1CC(F)C1 [Example 429, (5S)-5-[(3-Fluoroazetidin-1-yl)carbonyl]-2-{[6-(trifluoromethyl)pyridin-3-yl]methyl}-5,6,7,8-tetrahydro[1,2,4]triazolo[4,3-a]pyridin-3(2H)-one] | 3.7
22 | COc1ccc(Cn2nc3n(c2=O)[C@H](C(=O)N2CC[C@H](F)C2)CCC3)cn1 [Example 430, (5S)-5-{[(3S)-3-Fluoropyrrolidin-1-yl]carbonyl}-2-[(6-methoxypyridin-3-yl)methyl]-5,6,7,8-tetrahydro[1,2,4]triazolo[4,3-a]pyridin-3(2H)-one] | 1.1
23 | COc1ccc(Cn2nc3n(c2=O)[C@H](C(=O)N2C[C@@H](F)[C@@H](F)C2)CCC3)cn1 [Example 431, (5S)-5-{[(3R,4S)-3,4-Difluoropyrrolidin-1-yl]carbonyl}-2-[(6-methoxypyridin-3-yl)methyl]-5,6,7,8-tetrahydro[1,2,4]triazolo[4,3-a]pyridin-3(2H)-one] | 0.995
24 | COc1ccc(Cn2nc3n(c2=O)[C@H](C(=O)N2CCC[C@H]2C#N)CCC3)cn1 [Example 432, (2S)-1-({(5S)-2-[(6-Methoxypyridin-3-yl)methyl]-3-oxo-2,3,5,6,7,8-hexahydro[1,2,4]triazolo[4,3-a]pyridin-5-yl}carbonyl)pyrrolidine-2-carbonitrile] | 0.13
